# Columns and labels:
# DNA repair protein genes = assay: DNA chip mRNA expression in yeast, DNA repair protein genes (Table 3); format: cell-based, Saccharomyces cerevisiae S288C; conditions: incubated two hours, concentrations as in the 1st table
# Method in brief: (§1)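 Cells were grown at 25° C. in YPD, treated at logarithmic phase for 2 h with a chemical at a concentration inhibiting growth but not causing death, and compared with untreated cultures. Labeled cDNA was hybridized to a DNA chip carrying all yeast genes, and the expression ratio was taken from scanner fluorescence.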
# [1] = tested on: Detoxification protein genes; assay: DNA chip mRNA expression in yeast, detoxification protein genes (Table 8); format: cell-based, Saccharomyces cerevisiae S288C
# Method in brief: as §1
substance,measurement,setting,value
Na2As [(1)],The level of expressed mRNA in the presence of chemical substance/The level of expressed mRNA in the absence of chemical substance,DNA repair protein genes; yeast gene YAL015C,1.2
same,The level of expressed mRNA in the presence of chemical substance/The level of expressed mRNA in the absence of chemical substance,DNA repair protein genes; yeast gene YAR007C,0.7
same,The level of expressed mRNA in the presence of chemical substance/The level of expressed mRNA in the absence of chemical substance,DNA repair protein genes; yeast gene YBL019W,0.9
same,The level of expressed mRNA in the presence of chemical substance/The level of expressed mRNA in the absence of chemical substance,DNA repair protein genes; yeast gene YBR073W,0.7
same,The level of expressed mRNA in the presence of chemical substance/The level of expressed mRNA in the absence of chemical substance,DNA repair protein genes; yeast gene YBR272C,0.8
same,The level of expressed mRNA in the presence of chemical substance/The level of expressed mRNA in the absence of chemical substance,DNA repair protein genes; yeast gene YCR014C,0.8
same,The level of expressed mRNA in the presence of chemical substance/The level of expressed mRNA in the absence of chemical substance,DNA repair protein genes; yeast gene YDL017W,0.8
same,The level of expressed mRNA in the presence of chemical substance/The level of expressed mRNA in the absence of chemical substance,DNA repair protein genes; yeast gene YDL059C,2.6
same,The level of expressed mRNA in the presence of chemical substance/The level of expressed mRNA in the absence of chemical substance,DNA repair protein genes; yeast gene YDL200C,1.4
same,The level of expressed mRNA in the presence of chemical substance/The level of expressed mRNA in the absence of chemical substance,DNA repair protein genes; yeast gene YDR054C,1.3
same,The level of expressed mRNA in the presence of chemical substance/The level of expressed mRNA in the absence of chemical substance,DNA repair protein genes; yeast gene YDR369C,1.1
same,The level of expressed mRNA in the presence of chemical substance/The level of expressed mRNA in the absence of chemical substance,DNA repair protein genes; yeast gene YEL019C,1.1
same,The level of expressed mRNA in the presence of chemical substance/The level of expressed mRNA in the absence of chemical substance,DNA repair protein genes; yeast gene YEL037C,0.9
same,The level of expressed mRNA in the presence of chemical substance/The level of expressed mRNA in the absence of chemical substance,DNA repair protein genes; yeast gene YER162C,1.0
same,The level of expressed mRNA in the presence of chemical substance/The level of expressed mRNA in the absence of chemical substance,DNA repair protein genes; yeast gene YFL014W,3.4
same,The level of expressed mRNA in the presence of chemical substance/The level of expressed mRNA in the absence of chemical substance,DNA repair protein genes; yeast gene YGL058W,1.1
same,The level of expressed mRNA in the presence of chemical substance/The level of expressed mRNA in the absence of chemical substance,DNA repair protein genes; yeast gene YGL091C,2.0
same,The level of expressed mRNA in the presence of chemical substance/The level of expressed mRNA in the absence of chemical substance,DNA repair protein genes; yeast gene YGL127C,1.0
same,The level of expressed mRNA in the presence of chemical substance/The level of expressed mRNA in the absence of chemical substance,DNA repair protein genes; yeast gene YGL163C,0.9
same,The level of expressed mRNA in the presence of chemical substance/The level of expressed mRNA in the absence of chemical substance,DNA repair protein genes; yeast gene YGL249W,1.4
same,The level of expressed mRNA in the presence of chemical substance/The level of expressed mRNA in the absence of chemical substance,DNA repair protein genes; yeast gene YGR180C,3.1
same,The level of expressed mRNA in the presence of chemical substance/The level of expressed mRNA in the absence of chemical substance,DNA repair protein genes; yeast gene YGR231C,1.0
same,The level of expressed mRNA in the presence of chemical substance/The level of expressed mRNA in the absence of chemical substance,DNA repair protein genes; yeast gene YGR258C,0.7
same,The level of expressed mRNA in the presence of chemical substance/The level of expressed mRNA in the absence of chemical substance,DNA repair protein genes; yeast gene YHR164C,0.9
same,The level of expressed mRNA in the presence of chemical substance/The level of expressed mRNA in the absence of chemical substance,DNA repair protein genes; yeast gene YIL036W,0.9
same,The level of expressed mRNA in the presence of chemical substance/The level of expressed mRNA in the absence of chemical substance,DNA repair protein genes; yeast gene YIL072W,0.8
same,The level of expressed mRNA in the presence of chemical substance/The level of expressed mRNA in the absence of chemical substance,DNA repair protein genes; yeast gene YIL143C,0.9
same,The level of expressed mRNA in the presence of chemical substance/The level of expressed mRNA in the absence of chemical substance,DNA repair protein genes; yeast gene YIL153W,0.8
same,The level of expressed mRNA in the presence of chemical substance/The level of expressed mRNA in the absence of chemical substance,DNA repair protein genes; yeast gene YIR002C,0.8
same,The level of expressed mRNA in the presence of chemical substance/The level of expressed mRNA in the absence of chemical substance,DNA repair protein genes; yeast gene YJL026W,2.5
same,The level of expressed mRNA in the presence of chemical substance/The level of expressed mRNA in the absence of chemical substance,DNA repair protein genes; yeast gene YJR046W,1.0
same,The level of expressed mRNA in the presence of chemical substance/The level of expressed mRNA in the absence of chemical substance,DNA repair protein genes; yeast gene YJR052W,1.1
same,The level of expressed mRNA in the presence of chemical substance/The level of expressed mRNA in the absence of chemical substance,DNA repair protein genes; yeast gene YKL145W,0.8
same,The level of expressed mRNA in the presence of chemical substance/The level of expressed mRNA in the absence of chemical substance,DNA repair protein genes; yeast gene YLR103C,0.8
same,The level of expressed mRNA in the presence of chemical substance/The level of expressed mRNA in the absence of chemical substance,DNA repair protein genes; yeast gene YLR233C,1.1
same,The level of expressed mRNA in the presence of chemical substance/The level of expressed mRNA in the absence of chemical substance,DNA repair protein genes; yeast gene YLR288C,1.2
same,The level of expressed mRNA in the presence of chemical substance/The level of expressed mRNA in the absence of chemical substance,DNA repair protein genes; yeast gene YML032C,0.8
same,The level of expressed mRNA in the presence of chemical substance/The level of expressed mRNA in the absence of chemical substance,DNA repair protein genes; yeast gene YML058W,1.9
same,The level of expressed mRNA in the presence of chemical substance/The level of expressed mRNA in the absence of chemical substance,DNA repair protein genes; yeast gene YMR035W,1.2
same,The level of expressed mRNA in the presence of chemical substance/The level of expressed mRNA in the absence of chemical substance,DNA repair protein genes; yeast gene YMR072W,1.1
same,The level of expressed mRNA in the presence of chemical substance/The level of expressed mRNA in the absence of chemical substance,DNA repair protein genes; yeast gene YMR096W,1.7
same,The level of expressed mRNA in the presence of chemical substance/The level of expressed mRNA in the absence of chemical substance,DNA repair protein genes; yeast gene YMR284W,1.1
same,The level of expressed mRNA in the presence of chemical substance/The level of expressed mRNA in the absence of chemical substance,DNA repair protein genes; yeast gene YNL213C,1.7
same,The level of expressed mRNA in the presence of chemical substance/The level of expressed mRNA in the absence of chemical substance,DNA repair protein genes; yeast gene YNL250W,0.9
same,The level of expressed mRNA in the presence of chemical substance/The level of expressed mRNA in the absence of chemical substance,DNA repair protein genes; yeast gene YNL261W,1.0
same,The level of expressed mRNA in the presence of chemical substance/The level of expressed mRNA in the absence of chemical substance,DNA repair protein genes; yeast gene YNL312W,0.9
same,The level of expressed mRNA in the presence of chemical substance/The level of expressed mRNA in the absence of chemical substance,DNA repair protein genes; yeast gene YOL043C,1.1
same,The level of expressed mRNA in the presence of chemical substance/The level of expressed mRNA in the absence of chemical substance,DNA repair protein genes; yeast gene YOR005C,1.2
same,The level of expressed mRNA in the presence of chemical substance/The level of expressed mRNA in the absence of chemical substance,DNA repair protein genes; yeast gene YOR386W,1.0
same,The level of expressed mRNA in the presence of chemical substance/The level of expressed mRNA in the absence of chemical substance,DNA repair protein genes; yeast gene YPL022W,0.7
same,The level of expressed mRNA in the presence of chemical substance/The level of expressed mRNA in the absence of chemical substance,DNA repair protein genes; yeast gene YPL164C,1.1
same,The level of expressed mRNA in the presence of chemical substance/The level of expressed mRNA in the absence of chemical substance,DNA repair protein genes; yeast gene YPL194W,0.9
same,The level of expressed mRNA in the presence of chemical substance/The level of expressed mRNA in the absence of chemical substance,DNA repair protein genes; yeast gene YPR025C,1.1
same,The level of expressed mRNA in the presence of chemical substance/The level of expressed mRNA in the absence of chemical substance,[1]; yeast gene YBL064C,2.6
same,The level of expressed mRNA in the presence of chemical substance/The level of expressed mRNA in the absence of chemical substance,[1]; yeast gene YBR008C,3.0
same,The level of expressed mRNA in the presence of chemical substance/The level of expressed mRNA in the absence of chemical substance,[1]; yeast gene YBR145W,1.5
